{"source": "ChEMBL document CHEMBL1221220", "about": "“Transport and signaling via the amino acid binding site of the yeast Gap1 amino acid transceptor” (Nat Chem Biol, 2009)", "key": {"[1]": {"test_system": "T1, General amino-acid permease GAP1 (Saccharomyces cerevisiae), P19145 [M401C]", "T1 sequence (whole entry)": "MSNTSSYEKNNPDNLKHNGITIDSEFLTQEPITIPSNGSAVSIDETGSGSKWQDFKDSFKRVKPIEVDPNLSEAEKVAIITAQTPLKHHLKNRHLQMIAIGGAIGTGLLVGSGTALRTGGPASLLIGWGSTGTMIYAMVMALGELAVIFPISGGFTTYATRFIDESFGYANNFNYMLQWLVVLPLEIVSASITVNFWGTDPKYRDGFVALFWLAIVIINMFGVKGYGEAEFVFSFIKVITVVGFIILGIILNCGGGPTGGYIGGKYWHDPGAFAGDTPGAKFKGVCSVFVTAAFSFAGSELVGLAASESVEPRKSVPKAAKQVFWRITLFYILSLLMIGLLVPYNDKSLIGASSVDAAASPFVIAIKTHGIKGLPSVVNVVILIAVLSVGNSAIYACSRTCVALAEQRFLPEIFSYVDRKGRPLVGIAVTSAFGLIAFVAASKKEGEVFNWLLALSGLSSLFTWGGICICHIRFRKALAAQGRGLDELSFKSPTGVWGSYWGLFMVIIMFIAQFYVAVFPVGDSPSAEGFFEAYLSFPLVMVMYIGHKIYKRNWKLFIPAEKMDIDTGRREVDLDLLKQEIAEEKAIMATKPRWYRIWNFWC", "experiment": "Activation of yeast Gap1 M401C mutant-mediated amino acid uptake at 10 mM"}, "[2]": {"test_system": "T2, General amino-acid permease GAP1 (Saccharomyces cerevisiae), P19145 [I382C]", "T2 sequence (whole entry)": "T1 sequence (whole entry) with I382C, C401M", "experiment": "Induction of yeast Gap1 I382C mutant-mediated amino acid uptake at 2 mM in presence of 10 mM MTSEA treated before compound addition"}, "[3]": {"test_system": "T3, General amino-acid permease GAP1 (Saccharomyces cerevisiae), P19145 [A385C]", "T3 sequence (whole entry)": "T1 sequence (whole entry) with A385C, C401M", "experiment": "Activation of yeast Gap1 A385C mutant-mediated amino acid uptake at 10 mM"}, "[4]": {"test_system": "T4, General amino-acid permease GAP1 (Saccharomyces cerevisiae), P19145 [A396C]", "T4 sequence (whole entry)": "T1 sequence (whole entry) with A396C, C401M", "experiment": "Induction of yeast Gap1 A396C mutant-mediated […] activation at 2 mM in presence of 10 mM MTSEA treated before compound addition"}, "[5]": {"test_system": "T2, General amino-acid permease GAP1 (Saccharomyces cerevisiae), P19145 [I382C]", "experiment": "Induction of yeast Gap1 I382C mutant-mediated trehalose activation at 2 mM in presence of 10 mM MTSEA treated before compound addition"}}, "note": "Where a chain is given by its changes, count along the chain named. The source made the active and inactive calls. The rule behind the calls is not given here.", "data": [{"compound": "NC(=O)NCCC[C@H](N)C(=O)O", "values": [{"measurement": "Activity", "setting": "[1]", "result": "inactive"}, {"measurement": "Activity", "setting": "[2]", "result": "Active"}, {"measurement": "Activity", "setting": "[3]", "result": "inactive"}, {"measurement": "inhibition", "setting": "[4]", "result": "Active"}, {"measurement": "inhibition", "setting": "[5]", "result": "Active"}]}]}
